Data taken from article PMC5784132, “Investigation of 20S-hydroxyvitamin D3 analogs and their 1α-OH derivatives as potent vitamin D receptor agonists with anti-inflammatory activities” (Scientific Reports, 2018).

How the values were obtained:
rat CYP24A1 = biological target: T1, rat CYP24A1 (Rattus norvegicus, UniProt Q09128); assay: Time courses and product profiles for metabolism of analogs by rat CYP24A1; type: in vitro ADME
T1 construct: made in house; host or cells: E. coli
T1 sequence (Q09128 36-514): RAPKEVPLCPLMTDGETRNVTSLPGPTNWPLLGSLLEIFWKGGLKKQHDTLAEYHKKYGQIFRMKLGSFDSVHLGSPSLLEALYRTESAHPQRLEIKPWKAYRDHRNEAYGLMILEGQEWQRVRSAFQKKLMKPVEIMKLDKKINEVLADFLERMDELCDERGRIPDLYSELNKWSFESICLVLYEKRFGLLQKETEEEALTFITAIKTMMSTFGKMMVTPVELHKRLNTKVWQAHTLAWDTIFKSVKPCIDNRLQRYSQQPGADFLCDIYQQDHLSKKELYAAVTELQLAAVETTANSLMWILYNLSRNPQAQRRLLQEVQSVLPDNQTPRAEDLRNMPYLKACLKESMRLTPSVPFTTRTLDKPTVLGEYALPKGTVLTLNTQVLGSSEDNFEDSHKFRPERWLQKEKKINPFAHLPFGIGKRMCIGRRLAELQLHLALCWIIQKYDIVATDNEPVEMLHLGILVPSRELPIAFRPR
Description: These were identified from authentic standards as 20S,25(OH)2D3, and the two C24 diastereomers of 20S,24(OH)2D3[23],[27]. One of the C24 diastereomers, 20S,24 R(OH)2D3 is the major product and accounts for almost 70% of the total products. […] There were two major products formed from this analog, RT27 and RT30 (indicated by arrows), which accounted for approximately 20% and 30% of the total products, respectively. Compound 23 (Fig. S1E) was converted to at least 6 different products by the incubation with CYP24A1. In contrast, 13 tested under identical conditions generated only one major product with a retention time of 20 min (RT20) and three minor products (Fig. S1D). By 10 min of incubation, almost all of 13 had been metabolized by CYP24A1.
The activity of CYP24A1 with the different analogs was determined as a function of time to determine the initial linear region that could be used for kinetic studies, and to determine any differences in the pattern between analogs. […] The major product of 13 (Fig. S1C, RT20), accounted for 71% of the total secosteroids (products and substrate) at one min and by 20 min it was 95% of all secosteroids. The time course for 20S(OH)D3 in comparison to 4 and 33, reached maximum product formation early in the incubation, with the amount of product at the end of the incubation being only 2.2-fold higher than at one min. By 20 min, less than 15% of the 20S(OH)D3 had been metabolized. […] While initially being metabolized at the lowest rate of any of the analogs, 33 maintained its initial rate longer with more product being present at the end of the 20 min incubation than for any of the other analogs except 13 (Fig. 6).
Figure 6 Time courses for metabolism of 20S(OH)D3 analogs in phospholipid vesicles by rat CYP24A1. 20S(OH)D3, 4, 13, 23 and 33 were incorporated into phospholipid vesicles at a ratio of 0.018 mol/mol phospholipid and incubated with 0.14 µM rat CYP24A1 at 37 °C. Products were analyzed by HPLC.
Rat CYP24A1, mouse CYP27B1 and adrenodoxin and human adrenodoxin reductase were expressed in E. coli and purified as described before[28],[30],[35]. […] Samples from incubations with CYP24A1 were extracted with dichloromethane and analysed by HPLC using a 25 cm Grace Alltima C18 column, as before[27],[28]. […] Products from incubations with CYP27B1 were similarly extracted with dichloromethane and analyzed by reverse phase HPLC using a 15 cm Grace Smart C18 column and an acetonitrile in water gradient (10 min 45% to 100% acetonitrile then 20 min at 100% acetonitrile, at 0.5 mL/min).
Supplementary Fig. S1. […] Samples were analyzed by reverse-phase HPLC using an acetonitrile in water gradient as described in the Methods. […]

CYP24A1 gene expression = assay: RT-PCR analysis of CYP24A1 expression in HaCaT cells; type: cell-based; conditions: Homo sapiens, 100 nM, 24 h treatment, read-out: relative mRNA level for CYP24A1 versus vehicle control
Method: Figure 7 20S(OH)D3 analogs upregulate the expression of CYP24A1 encoding the vitamin D catabolic enzyme, CYP24A1, with varying efficiencies. […] The mRNA was isolated and the RT-PCR was performed using specific primers for the CYP24A1 gene (see Methods). Data are presented as mean ± SE (n = 3). *p < 0.05, **p < 0.01 and ***p < 0.001 compared with the control.
HaCaT cells were purchased from Thermo Fisher Scientific (Waltham, MA, USA) and were cultured as for the VDRE reporter assay. The RNA from HaCaT keratinocytes treated with secosteroids or from DMSO controls was isolated using the Absolutely RNA Miniprep Kit (Stratagene, La Jolla, CA, USA). Reverse transcription (100 ng RNA/reaction) was performed with the Transcriptor First Strand cDNA Synthesis Kit (Roche Inc., Mannheim, Germany). Real-time PCR was performed using cDNA diluted 10-fold in sterile water and a SYBR Green PCR Master Mix. The primers for both forward and reverse strands for CYP24A1 were designed based on the mouse and rat sequences using Primer Quest software ([…], San Jose, CA, USA). Reactions (in triplicate) were performed at 50 °C for 2 min, 95 °C for 10 min and then 40 cycles of 95 °C for 15 s, 60 °C for 30 s and 72 °C for 30 s. Data were collected and analyzed on a Roche Light Cycler 480. The amount of the final amplified product for each gene was compared and normalized to the amount of β-actin product as a housekeeping gene using a comparative Ct method.

IFNγ production = assay: IFNγ inhibition assay in anti-CD3 activated splenocytes; conditions: for activity at 0.1 µM: Mus musculus, Splenocyte, 72 h, read-out: IFNγ (ratio ± SD)
Method: To test whether the 20S(OH)D3 analogs also show anti-inflammatory properties, the inhibition of IFNγ production was performed using our established assay[1],[4],[23]. […] Secosteroids were solubilized in absolute EtOH at 10^−4 M and diluted to 10^−6 M by adding Eagles Minimal Essential Medium (EMEM) containing 9% charcoal-stripped fetal calf serum, 100 U/mL penicillin and 100 µg/mL streptomycin, non-essential amino acids, 2.5 mM 2-mercaptoethanol, 2.5 mM L-glutamine[16]. Splenocytes from mice were isolated, erythrocytes lysed by hypotonic shock, washed twice with EMEM, and suspended at a concentration for 2 × 10^6 cells/mL in EMEM as described above. To each well in a 48-well tissue culture plate, 450 µL of the splenocytes were added. Secosteroids (50 µL of the 10^−6 M stock) or EtOH diluted 1:100 with the above culture medium were added to triplicate wells and then incubated at 37 °C in 5% CO2 in a humidified tissue culture incubator for 2 h, after which 1 µg/well of rat anti-mouse CD3 MOAB was added. After 72 h culture, supernatants from each well were harvested and analyzed by ELISA for levels of D-murine IFNγ (RAD Systems, Minneapolis, MN, USA), according to the manufacturer’s instructions. The concentration of IFNγ is supernatants from cultures containing secosteroids were compared to the concentration of IFNγ in the supernatants of EtOH-treated control cultures, by ANOVA.

SMILES | substrate metabolized by CYP24A1 (rat CYP24A1; by 10 min of incubation) | metabolism by CYP24A1 relative to 20S(OH)D3 (rat CYP24A1; by 20 min, fold greater than 20S(OH)D3) | fold induction at 0.1 µM (CYP24A1 gene expression) | activity at 0.1 µM (IFNγ production) | amount of product at end of incubation relative to one min (rat CYP24A1; 20 min incubation versus one min) | substrate metabolized by CYP24A1 (rat CYP24A1; by 20 min) | decrease of IFNγ production level (IFNγ production; 100 nM)
C=C1CC[C@H](O)C/C1=C/C=C1\CCC[C@@]2(C)[C@H]1CC[C@@H]2[C@@](C)(O)CCOC(C)C [compound 13] | almost all | 6 fold | 0.8 | 82.4 ± 3.1% |  |  | 
C=C1CC[C@H](O)C/C1=C/C=C1\CCC[C@@]2(C)[C@H]1CC[C@@H]2[C@@](C)(O)CCCC(C)C [20S(OH)D3, 20S-hydroxyvitamin D3] |  |  | 4.4 | 51.7 ± 4.6% | 2.2 fold | less than 15% | 48%
